For the test, the target named is HLA-B*4002 (Homo sapiens, UniProt P01889, A65T/A93T/A95T/D138N/D201E/D98Y/E176V/E204Q/E69K/K202T/N87E/Q56L/Q94N/R180L/S48T/Y33H/Y91S). The test is described as follows: Class I peptide-binding assay, HLA-B*4002 (B44 supertype). Conditions: HER2/neu-derived B44 peptides, Table 27; binding to purified HLA-B*4002.

The IC50 is the concentration at which inhibition is half-maximal. A higher IC50 goes with weaker potency in that assay. `CC[C@H](C)[C@H](NC(=O)[C@@H](NC(=O)[C@H](CS)NC(=O)[C@@H](NC(=O)[C@@H]1CCCN1C(=O)[C@@H]1CCCN1C(=O)[C@H](CCC(N)=O)NC(=O)[C@@H]1CCCN1C(=O)[C@H](CC(C)C)NC(=O)[C@H](CCCNC(=N)N)NC(=O)[C@H](CCC(=O)O)NC(=O)CN)[C@@H](C)CC)[C@@H](C)O)C(=O)O` [compound 493] registered a half-maximal inhibitory concentration (IC50) of 9.5 nM.

The values are drawn from patent publication US20060094649A1, “Hla-a1,-a2,-a3,-a24,-b7, and-b44 tumor associated antigen peptides and compositions” (priority 2002, published 2006).
